Data published in US3991041A, “(Phe3 -Ala)1 -somatostatin” (American Home Products Corporation, priority 1975, dated 1976).

Tests used:
Assay type in all cases: in vivo, albino male rats
growth hormone = assay: Nembutal/arginine rat test, blood radioimmunoassayed for growth hormone
Description: (§1) Nembutal (50 mg/kg) was injected intraperitoneally into each rat. Fifteen minutes later a subcutaneous injection of the test compound, somatostatin (200 μg/kg) and physiological saline (control) was administered separately to each of the three groups of rats. Ten minutes later 0.5 milliliters of arginine (300 mg/ml, pH 7.2) was injected into the rats heart. The rats were decapitated five minutes later and their blood was collected in Trasylol -EDTA. Aliquot samples were radioimmunoassayed for growth hormone, glucagon and insulin. The cyclic heptadecapeptide of this invention, with Trp in the L-configuration and in the form of the C-terminal carboxylic acid, selected as representative of the group of compounds disclosed for test purposes, was employed in two additional distinct test procedures at about 5,000 μg/kg dose levels.

insulin = assay: Nembutal/arginine rat test, blood radioimmunoassayed for insulin
Description: as §1

glucagon = assay: Nembutal/arginine rat test, blood radioimmunoassayed for glucagon
Description: as §1

Compound	GH (growth hormone; dose 1,000 μg/kg subcutaneous, Nembutal 50 mg/kg i.p., arginine intracardiac 10 min after dose, blood 5 min later, control 282±31) [ng/mL]	GH (growth hormone; dose 4,660 μg/kg, third test, control 202±26) [ng/mL]	GH (growth hormone; dose 5,000 μg/kg, second test, control 126±25) [ng/mL]	Insulin (insulin; dose 1,000 μg/kg subcutaneous, arginine-stimulated rats, control 243±20, * Not Significant) [μU/ml]	Insulin (insulin; dose 4,660 μg/kg, third test, control 176±1, * Not Significant) [μU/ml]	Insulin (insulin; dose 5,000 μg/kg, second test, control 283±37, * Not Significant) [μU/ml]	Glucagon (glucagon; dose 1,000 μg/kg subcutaneous, arginine-stimulated rats, control 17.1±4.8) [pg/mL]	Glucagon (glucagon; dose 4,660 μg/kg, third test, control 3.7±1.3, * Not Significant) [pg/mL]	Glucagon (glucagon; dose 5,000 μg/kg, second test, control 14.0±3) [pg/mL]	GH (growth hormone; dose 200 μg/kg subcutaneous, arginine-stimulated rats, control 282±31) [ng/mL]	Insulin (insulin; dose 200 μg/kg subcutaneous, arginine-stimulated rats, control 243±20) [μU/ml]	Glucagon (glucagon; dose 200 μg/kg subcutaneous, arginine-stimulated rats, control 17.1±4.8) [pg/mL]
C[C@H](NC(=O)[C@H](Cc1ccccc1)NC(=O)[C@H](Cc1ccccc1)NC(=O)[C@@H](N)Cc1ccccc1)C(=O)NCC(=O)N[C@H]1CSSC[C@@H](C(=O)O)NC(=O)[C@H](CO)NC(=O)[C@H]([C@@H](C)O)NC(=O)[C@H](Cc2ccccc2)NC(=O)[C@H]([C@@H](C)O)NC(=O)[C@H](CCCCN)NC(=O)[C@H](Cc2c[nH]c3ccccc23)NC(=O)[C@H](Cc2ccccc2)NC(=O)[C@H](Cc2ccccc2)NC(=O)[C@H](CC(N)=O)NC(=O)[C@H](CCCCN)NC1=O [Example 3, L-phenylalanyl-L-phenylalanyl-L-phenylalanyl-L-alanylglycyl-L-cysteinyl-L- lysyl-L-asparaginyl-L-phenylalanyl-L-phenylalanyl-L-tryptophyl-L-lysyl-L-threonyl-L-phenylalanyl-L-threonyl-L-seryl-L-cysteine, (6→17) triacetate]	124 ± 11	97 ± 7	27 ± 2	204±18	165±16	202±37	0.6 ± 0.2	1.1 ± 0.5	6.5 ± 2.3	–	–	–
C[C@H](N)C(=O)NCC(=O)N[C@H]1CSSC[C@@H](C(=O)O)NC(=O)[C@H](CO)NC(=O)[C@H]([C@@H](C)O)NC(=O)[C@H](Cc2ccccc2)NC(=O)[C@H]([C@@H](C)O)NC(=O)[C@H](CCCCN)NC(=O)[C@H](Cc2c[nH]c3ccccc23)NC(=O)[C@H](Cc2ccccc2)NC(=O)[C@H](Cc2ccccc2)NC(=O)[C@H](CC(N)=O)NC(=O)[C@H](CCCCN)NC1=O [SRIF, somatostatin]	–	–	–	–	–	–	–	–	–	117 ± 6	136±12	2.0 ± 1.4
